# Reference: paper PMC11024869, “The activity of antimicrobial peptoids against multidrug-resistant ocular pathogens” (Contact lens & anterior eye : the journal of the British …, 2024)
# Like-named read-outs stand apart in the source and are kept apart here. Non-standard residues stand in square brackets, D forms with d. Residues, ends and D or L forms follow the SMILES beside them. Nspe(4-Br) = C[C@H](NCC(=O)O)c1ccc(Br)cc1; Nspe = C[C@H](NCC(=O)O)c1ccccc1; NDecylGly = CCCCCCCCCCNCC(=O)O; Nlys = NCCCCNCC(=O)O
# Experiments:
# S. aureus strains = format: cell-based, Staphylococcus aureus; settings: summary over five S. aureus strains in text
# Source text: (§2) The S. pneumoniae strains used were SP04, SP06 and SP07 [46] and Streptococcus gallolyticus SV06 (all isolated from eyes of contact lens wearers during adverse events); P. aeruginosa PAO1 (which was originally isolated from a wound, and is an invasive strain containing the gene exoS) as well as isolates from microbial keratitis, PA 235 (invasive strain containing exoS), PA216 (a cytotoxic strain containing exoU), PA219 (cytotoxic strain containing exoU), PA 233 (cytotoxic strain containing exoU), with various susceptibilities to antibiotics were also used [14]. C. albicans ATCC 10231, a yeast, isolated from case of a human bronchomycosis, was also evaluated.
# (§3) The peptoids’ minimum inhibitory and bactericidal concentrations (MIC and MBC) were determined using micro broth dilution methods as previously described with slight modifications, [26, 39, 49, 50], and without using acetic acid and bovine serum albumin [39]. Briefly, bacteria or yeast were suspended in Muller Hinton broth (MHB, Oxoid, Thermo Fisher Scientific, Thebarton, SA, Australia) at 0.1 OD660nm, which was equivalent to 1x10^8 colony forming units (CFU) mL^−1. This suspension was further diluted to achieve 5x10^6 CFU mL^−1. […] Post incubation, the number of CFUs on the agar plates was counted.
# [1] = tested on: human corneal epithelial cells; assay: Cytotoxicity (MTT) to corneal epithelial cells; format: cell-based
# Experimental: Cytotoxicity to corneal epithelial cells was assessed for peptoids TM1, TM5 and TM9 using previously published methods and FDA guidelines. These peptides represent structurally diverse types (Table 2) and had different abilities to cause hemolysis of red blood cells (Fig. 1 and Table 3). Corneal cells were seeded on 96 well plate (GreinerBio One, Frickenhauser, Germany) incubated in 5 % CO2 at 37°C and grown to 80 % confluence in Dulbecco’s modified Eagle’s medium (DMEM) (Sigma-Aldrich, Irvine, UK). They were then exposed to twofold dilutions of each peptoid at concentrations ranging from 500 to 1.95 μg mL^−1 for 24 h at 37°C. An MTT (3-(4,5-dimethylthiazol-2yl)-2,5-diphenyltetrazolium bromide; Sigma-Aldrich) working solution of 0.5 mg mL^−1 was dissolved in DMEM, 100–200 μL was dispensed into each well and incubated for 4 h at 37°C. Following incubation, MTT was replaced by dimethyl sulfoxide (DMSO, Sigma Aldrich) to dissolve the formazan crystals formed by viable cells. Absorbance of this solution was measured at OD570nm. The absorbance is directly proportional to the number of viable cells. The normalized absorbance was calculated to determine number of viable cells using the following formula: %Cytotoxicity=(Absorbance of experiment well)−mean(absorbance of control well)/mean(Absorbance of positive control well)⋆100
# Data are also presented as the concentration of peptoids that caused 10 % or 50 % cytotoxicity to human corneal epithelial cells.
# The geometric mean is the nth root of the multiplied numbers, where n is the total number of data values. A similar formula was used to calculate the selectivity ratio, but by using the concentration of peptoid that caused 10 % hemolysis.
# streptococci = assay: MIC micro broth dilution, summary over streptococci; format: cell-based
# Source text: as §2, §3
# Proteinase K = Proteinase K (Parengyodontium album, UniProt P06873)
# Experimental: (§1) Melimine was used as positive control as it is a cationic antimicrobial peptide that can be hydrolysed by proteases. The Expasy peptide cutter module (https://web.expasy.org/peptide_cutter/) was accessed to predict which proteases might digest melimine. The susceptibility of the antimicrobial compounds to digestion by two proteases expected to digest melimine, Proteinase K (120 unit mL^−1 in 20 mM Tris HCl, pH 7.4; New England Bio Labs, Australia) and Trypsin (10,350 BAFE units/mg in 50 mM borate buffer, pH 8.5; Thermo Scientific products, Australia), was tested. The peptoids and melimine were incubated with each protease at the ratio (w/w) of 1:100 in PBS (pH 7.4) for 24 h at 37 °C. After incubation, the peptoid/melimine + protease solutions were tested for their activity against P. aeruginosa 216 which was grown overnight in TSB at 37 °C. Bacterial cells were washed three times in PBS and then resuspended in MHB OD660nm of 0.1 (equal to 1x10^8 CFU mL^−1. The bacterial suspension was then diluted in MHB to a final working concentration of 5x10^6 cells mL^−1. The diluted bacterial suspension was subsequently added to the wells containing the peptoids/melimine + protease solution and incubated for 24 h at 37 °C. Peptoids/melimine solutions alone (no proteases) were used as a positive control, while protease solutions without the peptoids/melimine were used as a negative control. Post incubation, to inhibit the activity of the proteases, the bacterial suspensions were heated at 55 °C for 10 min in a water bath. After the heating step, the absorbance of the suspensions was measured at OD660nm.
# P aeruginosa 216 = tested on: P aeruginosa 216
# Experimental: as §1
# Trypsin = target: T1, Trypsin (Bos taurus, UniProt P00760)
# T1 sequence (P00760 24-246): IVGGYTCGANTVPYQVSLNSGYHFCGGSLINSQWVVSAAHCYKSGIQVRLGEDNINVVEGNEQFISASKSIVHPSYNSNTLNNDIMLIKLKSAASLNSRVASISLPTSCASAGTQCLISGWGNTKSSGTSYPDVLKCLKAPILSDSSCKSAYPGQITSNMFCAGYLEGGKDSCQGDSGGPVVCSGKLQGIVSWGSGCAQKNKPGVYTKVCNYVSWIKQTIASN
# Experimental: as §1
# [2] = incubated with protease at ratio (w/w) 1:100 in PBS pH 7.4, 24 h 37 °C, then P aeruginosa 216 in MHB 24 h 37 °C, OD660nm
# Source text for all strains: as §2, §3
# Chain of Proteinase K (P06873 106-384): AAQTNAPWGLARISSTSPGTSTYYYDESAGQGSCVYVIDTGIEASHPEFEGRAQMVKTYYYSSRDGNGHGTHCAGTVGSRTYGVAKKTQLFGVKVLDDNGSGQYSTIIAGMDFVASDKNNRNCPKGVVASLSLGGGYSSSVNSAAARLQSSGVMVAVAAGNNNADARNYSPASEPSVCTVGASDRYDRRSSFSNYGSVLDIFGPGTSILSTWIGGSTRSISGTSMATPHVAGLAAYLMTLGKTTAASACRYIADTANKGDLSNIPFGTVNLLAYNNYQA
smiles,measurement,setting,value
C[C@@H](c1ccccc1)N(CC(N)=O)C(=O)CN(C(=O)CN(CCCCN)C(=O)CN(C(=O)CN(C(=O)CN(CCCCN)C(=O)CN(C(=O)CN(C(=O)CN(CCCCN)C(=O)CN(C(=O)CN(C(=O)CNCCCCN)[C@@H](C)c1ccccc1)[C@@H](C)c1ccccc1)[C@@H](C)c1ccccc1)[C@@H](C)c1ccccc1)[C@@H](C)c1ccccc1)[C@@H](C)c1ccccc1)[C@@H](C)c1ccccc1 [TM1] (H-[Nlys][Nspe][Nspe][Nlys][Nspe][Nspe][Nlys][Nspe][Nspe][Nlys][Nspe][Nspe]-NH2),MIC among S. aureus,S. aureus strains,≤ 9.4 µM
same,HCE CC10,"[1]; concentration causing 10 % cytotoxicity to human corneal epithelial cells, MTT, 24 h 37°C",1 µM
same,HCE CC50,"[1]; concentration causing 50 % cytotoxicity to human corneal epithelial cells, MTT, 24 h 37°C",10 µM
same,cytotoxicity to human corneal epithelial cells relative to MIC,[1]; result in words,cytotoxic to human corneal epithelial cells at or below their MICs
same,SR HCE (ratio CC10 to geometric mean MIC),[1]; selectivity ratio,0.3
same,TI HCE (ratio CC50 to geometric mean MIC),[1]; therapeutic index,3
same,MIC against other streptococci,streptococci,≤ 8.6 µM
C[C@@H](c1ccc(Br)cc1)N(CC(=O)N(CCCCN)CC(=O)N(CC(=O)N(CC(=O)N(CCCCN)CC(N)=O)[C@@H](C)c1ccc(Br)cc1)[C@@H](C)c1ccc(Br)cc1)C(=O)CN(C(=O)CNCCCCN)[C@@H](C)c1ccc(Br)cc1 [TM14] (H-[Nlys][Nspe(4-Br)][Nspe(4-Br)][Nlys][Nspe(4-Br)][Nspe(4-Br)][Nlys]-NH2),MICs against all strains,all strains,≤ 12.7 µM
same,MIC after Proteinase K,Proteinase K; pH 7.4,7.8 (5.8) μg mL^−1
same,"MIC, No protease","P aeruginosa 216; 216, 24 h",7.8 (5.8) μg mL^−1
same,MIC after Trypsin,Trypsin; pH 7.4,7.8 (5.8) μg mL^−1
CCCCCCCCCCNCC(=O)N(CCCCN)CC(=O)N(CC(=O)N(CC(=O)N(CCCCN)CC(=O)N(CC(=O)N(CC(=O)N(CCCCN)CC(N)=O)[C@@H](C)c1ccccc1)[C@@H](C)c1ccccc1)[C@@H](C)c1ccccc1)[C@@H](C)c1ccccc1 [TM18] (H-[NDecylGly][Nlys][Nspe][Nspe][Nlys][Nspe][Nspe][Nlys]-NH2),MIC after Proteinase K,Proteinase K; [2],15 (12) μg mL^−1
same,"MIC, No protease","P aeruginosa 216; P aeruginosa 216 in MHB, 24 h 37 °C, OD660nm, compound alone",15 (12) μg mL^−1
same,MIC after Trypsin,Trypsin; [2],15 (12) μg mL^−1
